{"source": "patent US7745665B2", "about": "“Substituted phenethylamines” (Auspex Pharmaceuticals, Inc., priority 2007, dated 2010)", "origin": "cited, not measured here", "conditions": "oxidation of the methylene group alpha to the nitrogen; humans"}
{"smiles": "CNC[C@H](O)c1cccc(O)c1", "note": "[Phenylephrine, (R)-3-(1-hydroxy-2-methylamino-ethyl)-phenol]", "values": [{"measurement": "hydroxymandelic acid metabolite as share of the recovered mass balance", "value": "more than 50%"}]}
